Source: patent US11202789B2, “Method of treating glycogen storage disease” (Viking Therapeutics, Inc., priority 2016, dated 2021)
Entries after “also recorded” stand apart in the source; their conditions may differ.

Key:
Assay type in all cases: in vivo
beagle dogs = assay: Compound 2 dosing study in dogs: plasma cholesterol; details: for average reduction of total plasma cholesterol levels: Day 15, from baseline
Experimental: Compound 2 Dosing Study in Dogs: The objective of the study was to determine the effects of oral administration of Compound 2 once-daily for 14 days followed by alternate day dosing for 14 days on plasma cholesterol levels and indicators of thyroid function in beagle dogs. Compound 2 was formulated with Lutrol F68 NF (Poloxomer 188) and carboxymethylcellulose (CMC; sodium salt/high viscosity) and was administered as a suspension in 0.5% CMC/1% Lutrol in deionized water. […] At the end of the treatment cycle (Cycle 1), the dogs were washed out for 4 weeks and then entered into a second 14-day treatment cycle. Cycle 2 employed the same dosing paradigm as Cycle 1, but animals were randomized to Cycle 2 in such a way that the combined dosing groups from the two cycles consisted of 4 different animals (2 males, 2 females) each. At the conclusion of Cycle 2, dosing was continued on alternate days for an additional 14-day period (Cycle 2 Extension). Blood samples were collected at baseline and appropriate time intervals thereafter and analyzed for total plasma cholesterol levels, serum levels of total T4 (tT4), free T4 (fT4), total T3 (tT3), free T3 (fT3), and thyroid stimulating hormone (TSH).

G6PC−/− mice = assay: G6PC−/− mouse model of GSD Ia (Example 12)
Experimental: Compound 2 was tested in a G6PC−/−mouse model of GSD Ia. Daily injection of 0.1 to 0.2 mL 10% dextrose subcutaneously was initiated within 3 days of age for G6PC−/−mice. All G6PC−/−mice continued to receive daily dextrose injections during this time. Blood was collected at time of euthanasia, when tissues were collected. Two groups of 4 G6PC−/−mice (1 group treated with Compound 2, 1 group treated with vehicle) were analyzed to identify statistically significant differences between Compound 2-treated and vehicle-treated controls. We also treated 2 groups of 3 normal (wild type) mice, one with Compound 2 and one with vehicle.
Initially the GSD Ia mice were treated with Compound 2 from 5 to 10 days of age. Body mass, liver mass, liver glycogen concentration, liver triglycerides, fasting serum glucose, fasting serum triglycerides, and GSD-related cell signaling pathways were examined. Similarly, groups of GSD Ia mice were treated with vehicle for 5 days to serve as mock-treated controls for all assays. Groups of 3-4 mice were evaluated. GSD Ia mice were treated for >7 days to assess survival and longer-term effects of Compound 2 as described above (GSD Ia mice rarely survive >12 days of life without a therapeutic intervention). Metabolomic analysis of hepatic extracts were performed as described (Sinha, Farah et al. (2013), Hepatology 59(4):1366-80). Acylcarnitine and amino acid profiling were employed to detect any changes related to increased lipolysis and fatty acid beta-oxidation as described by Sinha et al. (Sinha, Farah et al. (2013), Hepatology 59(4):1366-80). […] Mean liver triglyceride content was reduced by more than 60% in Compound 2-treated animals relative to vehicle-treated control animals, while average liver weight was reduced by more than 30% vs. controls. Importantly, average liver weight as a percent of total body weight also declined by approximately 20% in treated vs. control animals. Further, treatment with Compound 2 led to statistically significant reductions in key metabolic markers of GSD Ia.

[1] = test system: male diet-induced obese (DIO) C57Bl/6 mice; assay: 2, 5 and 10 week study in mouse model of diet-induced obesity
Experimental: Objectives: The objectives of this study were to evaluate the effects of 2, 5 and 10 weeks of Compound 2 treatment at doses of 10 and 30 mg/kg/day on total plasma cholesterol levels, blood glucose levels, and hepatic steatosis in a mouse model of diet-induced obesity.
Methods: Male C57Bl/6 mice (4 weeks old) were fed a high-fat diet (60% fat by kcal) for 88 days to induce obesity, hyperlipidemia, and mild hyperglycemia prior to initiation of the study. For the study, 3 groups of mice (n=24-28) were dosed daily by gavage with 10 or 30 mg/kg of Compound 2 or vehicle (0.1% carboxymethylcellulose) and maintained on the same high-fat diet. During treatment, body weight, total plasma cholesterol levels, and blood glucose levels of the animals were measured weekly. Subsets of animals (n=6-12; 30 mg/kg/day) were sacrificed prior to treatment and after 2, 5 and 10 weeks of treatment for analysis of liver weights, liver triglyceride levels and liver histology.

[2] = test system: male Zucker Diabetic fatty (ZDF) rats; assay: 4-week (28 days) efficacy and safety study in male Zucker Diabetic fatty (ZDF) rats
Experimental: Objectives: The objective of the study was to evaluate the efficacy and safety of Compound 2 treatment for 4 weeks in male Zucker Diabetic fatty (ZDF) rats. Total plasma cholesterol, blood glucose levels, liver and muscle glycogen levels, and a plasma clinical chemistry were evaluated. Additionally, histological and biochemical assessments of hepatic steatosis were performed post-mortem. MB07875, a known human thyroid hormone receptor ligand, was included as a comparator in these studies.
Methods: Eight-week old male ZDF rats (n=5/group) were treated orally with Compound 2 or MB07875 for 28 days. The doses of Compound 2 [in 0.5% carboxymethylcellulose (CMC)] were 0.25, 0.5, 1, 2.5, 5, 15 and 50 mg/kg/day. The dose of MB07875 (in 0.5% CMC) was 0.2 mg/kg/day. Body weight was assessed just prior to treatment and at 24 hours following the last dose. Total plasma cholesterol and blood glucose were measured on a weekly basis. […] In addition, the liver was removed and weighed, and a portion freeze-clamped for glycogen and triglyceride analysis. Another portion was placed in 10% neutral buffered formalin for hematoxalin and eosin (H & E) staining. Finally, the heart was excised and weighed.

[3] = 10 and 30 mg/kg/day, following 2, 5 and 10 weeks, vs vehicle
[4] = Compound 2 0.25-50 mg/kg/day oral, 28 days

## Cc1cc(OCP2(=O)OCCC(c3cccc(Cl)c3)O2)cc(C)c1Cc1ccc(O)c(C(C)C)c1 (centres unmarked) [Compound 2]
Beagle dogs; 0.1 mg/kg/day oral once-daily
  effects on total plasma cholesterol levels: minimal effects
Beagle dogs; Day 15, 0.3 mg/kg/day oral once-daily for 14 days
  average reduction of total plasma cholesterol levels from baseline: ~22%
Beagle dogs; Day 15, 10 mg/kg/day oral once-daily for 14 days
  average reduction of total plasma cholesterol levels from baseline: ~47%
Beagle dogs; 0.3 mg/kg/day oral once-daily for 14 days
  average reduction of total plasma cholesterol levels: ~28 mg/dL
Beagle dogs; 10 mg/kg/day oral once-daily for 14 days
  average reduction of total plasma cholesterol levels: ~71 mg/dL
Beagle dogs; alternate day dosing for 14 days (Cycle 2 Extension)
  total plasma cholesterol levels relative to vehicle-treated animals: remained reduced relative to vehicle-treated animals to a similar or greater extent than observed after once-daily dosing
G6PC−/− mice; Compound 2-treated vs controls
  average liver weight reduced: more than 30%
G6PC−/− mice; Compound 2-treated vs vehicle-treated control animals
  mean liver triglyceride content reduced: more than 60%
G6PC−/− mice; G6PC−/− mice, vs vehicle-treated controls (FIG. 15)
  body mass: reduced
G6PC−/− mice; G6PC−/− mice, vs vehicle-treated controls (FIG. 16)
  liver mass: reduced
G6PC−/− mice; G6PC−/− mice, vs vehicle-treated controls (FIG. 17)
  liver mass as a percentage of body mass: reduced
G6PC−/− mice; G6PC−/− mice, vs vehicle-treated controls (FIG. 18)
  liver glycogen levels: somewhat enhanced
G6PC−/− mice; G6PC−/− mice, vs vehicle-treated controls (FIG. 19)
  serum triglycerides: somewhat enhanced
G6PC−/− mice; G6PC−/− mice, vs vehicle-treated controls (FIG. 20)
  liver triglyceride concentrations: reduced
G6PC−/− mice; G6PC−/− mice, vs vehicle-treated controls (FIG. 21)
  total liver triglycerides: reduced
G6PC−/− mice; treated vs control animals
  average liver weight as a percent of total body weight declined: approximately 20%
[1]; 30 mg/kg/day, after 2, 5 and 10 weeks, vs vehicle
  macrovesicular and microvesicular steatosis (liver histology): visually reduced
[1]; 10 and 30 mg/kg/day by gavage, most time points, vs vehicle
  blood glucose levels lower: up to 25%
[1]; 10 and 30 mg/kg/day by gavage, week 1 through end of study, vs vehicle
  total plasma cholesterol levels decreased: more than 50%
[1]; [3]
  liver weights lower: ~50%
  liver-to-body weight ratios lower: ~40%
[1]; 10 and 30 mg/kg/day, up to 10 weeks
  body weight gain: tended to reduce
[1]; 10 and 30 mg/kg/day, weeks 2, 5 and 10, vs vehicle
  total liver triglyceride content (mg/liver) lower: up to 60%
[1]; 10 or 30 mg/kg/day, any time point, vs vehicle
  liver triglyceride concentrations (mg/g liver): No significant changes
[2]; 1 mg/kg/day oral, day 28, vs vehicle
  reduction of total plasma cholesterol: ~25%
[2]; 2.5 mg/kg/day oral, day 28
  total bilirubin increased: ~86%
[2]; 2.5 mg/kg/day oral, day 28, vs vehicle
  blood glucose levels decreased: ~47%
[2]; 15 mg/kg/day oral, day 28
  albumin-to-globulin ratio increased: 21%
  blood urea nitrogen decreased: ~21%
[2]; 50 mg/kg/day oral, 28 days, dose-dependent
  liver glycogen levels reduced: > 90%
[2]; 50 mg/kg/day oral, day 28
  albumin-to-globulin ratio increased: 32%
  alkaline phosphatase decrease: ~42%
  blood urea nitrogen decreased: ~26%
  calcium levels decreased: ~5%
  phosphorus levels increased: ~27%
  total bilirubin increased: ~79%
  total protein levels decreased: ~10%
[2]; 50 mg/kg/day oral, day 28, vs vehicle
  reduction of total plasma cholesterol: ~34%
[2]; [4]
  effect on body weight: no significant effect
  effect on heart weight: no significant effect
  liver triglyceride content: no statistically significant decrease
[2]; Compound 2 0.25-50 mg/kg/day oral, 28 days, vs vehicle
  muscle glycogen levels: unaffected; also recorded: no significant differences
[2]; Compound 2-treated groups (0.25-50 mg/kg/day), any time during the study
  blood glucose levels: not increased
[2]; doses of 5 mg/kg/day and above, oral, day 28
  globulin decreased: ≤ 25%
[2]; doses ≥2.5 mg/kg/day oral, 28 days
  microvesicular steatosis, histological analysis of liver sections: decrease
[2]; highest dose evaluated (50 mg/kd/day), after 28 days of dosing
  decrease in liver glycogen levels relative to vehicle: ~90%
[2]; up to 50 mg/kg/day oral, 28 days
  cardiovascular function (heart rate, systolic and diastolic aortic pressure, LV dP/dt): did not alter
